Data published in PMC11597518, “Pharmacometabolomics Approach to Explore Pharmacokinetic Variation and Clinical Characteristics of a Single Dose of Desvenlafaxine in Healthy Volunteers” (Pharmaceutics, 2024).
Where “and” joins values, the source holds several entries; their conditions need not be identical. Equal values may be shown once. Read-outs that look alike come from different tables or passages of the source.

Assays:
[1] = Single-dose (Pristiq 100 mg, oral) pharmacokinetics in healthy volunteers, plasma LC-MS/MS, non-compartmental; type: in vivo, human
From the text: The present study was nested in a single-dose, open-label, randomized, pharmaco-bioequivalence study performed under biosafety and ethical standards. The data used were derived from 35 healthy volunteers who received the reference drug (Pristiq®, by Pfizer, Newbridge–Ireland) and who were selected for the study after assessment of their health status via clinical evaluation and a comprehensive set of laboratory tests. The same parameters were used to monitor adverse events post study.
The analytical method was validated according to the respective resolution of the Agência Nacional de Vigilância Sanitária [Brazilian Public Health Surveillance Agency] [9]. The study used an LC-MS/MS system to verify quantification and calculate pharmacokinetic parameters and performed chromatographic separations in an LC-20AD analytical pump (Shimadzu-Kyoto, Japan) using a SIL-20A HT autosampler (Shimadzu-Kyoto, Japan), coupled with mass spectrometry analyses using a Quattro Micro (Micromass, Newcastle, UK) mass spectrometer equipped with an electrospray ionization (ESI) source. […] was detected via a multiple reaction monitoring (MRM) transition of 264.33 > 58.15, and orphenadrine was detected via an MRM transition of 270.32 > 181.26. Data was acquired using MassLynx 4.1 (Waters, Newcastle, UK). More information on the validation method can be found in the Supplementary Materials, including chromatograms for the selectivity assay (Figure S1). Pharmacokinetic parameters were calculated employing a non-compartmental statistic using WinNonLin 8.3 software (Pharsight, New Jersey, USA).
Volunteers and Study Design
The study started with 48 enrolled participants. Of these, 13 participants desisted after drug administration. Of the 35 remaining participants, 23 different adverse events were reported for some of them.
The reference formulation was desvenlafaxine succinate monohydrate controlled-release coated tablet of 100 mg Pristiq® with administration of one single-dose tablet. The volunteers were hospitalized at 7:30 p.m. and had supper before 9:30 p.m. After an overnight fast, they received (at ∼5:40 a.m.) a tablet of 100 mg desvenlafaxine succinate monohydrate with 200 mL of water. The volunt eers then fasted for 4 h, after which period a standard lunch was served. A specific high-calorie diet was administered thirty minutes before taking the medication; Lunch: 4 hours after taking the medication; Afternoon snack:
8 hours after taking the medication; Dinner: 10 hours after taking the medication.
It was necessary to observe the ethical principle of non-maleficence due to the adverse event of nausea being considered very common (≥ 10%). the antiemetic (Dramin® B6 DL - IV - 30 mg / 100 mL saline / 30 minutes) was administered twice: the first dose immediately after administration of the study medication and a second dose 5:00 hours after administration of the study medication.
At 2 h before and 6, 8 and 12 h after the dose administration, vital signs were checked.
The recruitment period was 24 h, during which period, blood samples (8 mL) from a suitable antecubital vein were collected, post-dosing via an indwelling catheter, into […]
samples were centrifuged at ∼2,000×g for 10 min at 4°C, and the plasma was stored at - 70°C until assayed. Samples were handled under yellow light, due to the photosensitivity […]
Determination of Pharmacokinetic Profile by LC-MS/MS
Chromatographic separations were performed in an LC-20AD analytical pump and SIL-20A HT autosampler from Shimadzu. The stationary phase employed a Luna AgilLuna Agilent Polaris 5 µm C18-A 50 x 2,0mm column (Phenomenex). The mobile phase consisted of a solution of 10 mM ammonium acetate with 0.1% formic acid (Phase A) and acetonitrile with 0.1% formic acid (Phase B), flowing at 0.3 mL/min in proportion (2:8). The autosampler was maintained at 22°C, with an injection volume of 10 µl and 2.2- […]
Mass spectrometry was conducted on a Quattro Micro mass spectrometer from […]

[2] = Adverse events monitored by clinical evaluation and laboratory tests after single dose; type: in vivo, human
From the text: The present study was nested in a single-dose, open-label, randomized, pharmaco-bioequivalence study performed under biosafety and ethical standards. The data used were derived from 35 healthy volunteers who received the reference drug ([…]®, by Pfizer, Newbridge-Ireland) and who were selected for the study after assessment of their health status via clinical evaluation and a comprehensive set of laboratory tests. The same parameters were used to monitor adverse events post study. At the beginning and end of the study, all participants underwent clinical evaluation and laboratory tests using the reference values proposed by […] or without clinical significance, according to a medical report. A complete summary of participants' characteristics is available in Table S1. Clinical and laboratory characteristics outside the normal referential criteria were reported as adverse events (Table S2). page 3: Pharmaceutics 2024, 16, 1385 3 of 6 1. Supplementary Methods Volunteers and Study Design The study started with 48 enrolled participants. Of these, 13 participants desisted after drug administration. Of the 35 remaining participants, 23 different adverse events were reported for some of them. The reference formulation was desvenlafaxine succinate monohydrate controlled- release coated tablet of 100 mg […]® with administration of one single-dose tablet. The volunteers were hospitalized at 7:30 p.m. and had supper before 9:30 p.m. After an overnight fast, they received (at ∼5:40 a.m.) a tablet of 100 mg desvenlafaxine succinate monohydrate with 200 mL of water. The volunt eers then fasted for 4 h, after which period a standard lunch was served. A specific high-calorie diet was administered thirty minutes before taking the medication; Lunch: 4 hours after taking the medication; Afternoon snack: 8 hours after taking the medication; Dinner: 10 hours after taking the medication. It was necessary to observe the ethical principle of non-maleficence due to the adverse event of nausea being considered very common (≥ 10%). the antiemetic ([…] - 30 mg / 100 mL saline / 30 minutes) was administered twice: the first dose immediately after administration of the study medication and a second dose 5:00 hours after administration of the study medication. At 2 h before and 6, 8 and 12 h after the dose administration, vital signs were checked. The recruitment period was 24 h, during which period, blood samples (8 mL) from a suitable antecubital vein were collected, post-dosing via an indwelling catheter, into Heparin lithium-containing tubes at 0, 1:00, 2:00, 3:00, 4:00, 5:00, 6:00, 6:15, 6:30, 6:45, 7:00, 7:15, 7:30, 7:45, 8:00, 8:20, 8:40, 9:00, 10:00, 12:00, 24:00, and 36:00, 48:00, 72.0h. The blood samples were centrifuged at ∼2,000×g for 10 min at 4°C, and the plasma was stored at - 70°C until assayed. Samples were handled under yellow light, due to the photosensitivity of the drug. Determination of Pharmacokinetic Profile by LC-MS/MS Chromatographic separations were performed in an LC-20AD analytical pump and SIL-20A HT autosampler from Shimadzu. The stationary phase employed a Luna AgilLuna Agilent Polaris 5 μm […] 50 x 2,0mm column (Phenomenex). The mobile phase consisted of a solution of 10 mM ammonium acetate with 0.1% formic acid (Phase A) and acetonitrile with 0.1% formic acid (Phase B), flowing at 0.3 mL/min in proportion (2:8). The autosampler was maintained at 22°C, with an injection volume of 10 μl and 2.2- minute duration. Mass spectrometry was conducted on a Quattro Micro mass spectrometer from Micromass, equipped with an electrospray ionization (ESI) source. […]

[3] = design: method as in doi:10.4172/jbb.1000130; conditions: cited from earlier work
[4] = design: method as in doi:10.4172/jbb.1000130; conditions: cited from earlier work; remark: listed apart in the source
[5] = system: muscarinic–cholinergic receptors; design: method as in PMID 20694066; conditions: cited from earlier work
[6] = system: H1-histaminergic receptors; design: method as in PMID 20694066; conditions: cited from earlier work
α1-adrenergic receptors = system: α1-adrenergic receptors; design: method as in PMID 20694066; conditions: cited from earlier work
monoamine oxidase = system: monoamine oxidase; design: method as in PMID 20694066; conditions: cited from earlier work
[7] = cited from earlier work
[8] = 35 healthy volunteers, single oral 100 mg Pristiq, plasma
[9] = 35 participants, single 100 mg dose

With CN(C)CC(c1ccc(O)cc1)C1(O)CCCCC1 (stereo not shown) [desvenlafaxine, O-desmethylvenlafaxine] the “AUC 0-t, Maximum” value [1, 8] was 10,338.49 h*ng/mL, the “AUC 0-t, Minimum” value [1, 8] was 2711.68 ng·h/mL and the “Cmax, Maximum” value [1, 8] was 469.15 ng/mL. The “Cmax, Minimum” value [1, 8] was 123.16 ng/mL, the “Kel, Maximum” value [1, 8] was 0.11 h⁻¹ and the “Kel, Minimum” value [1, 8] was 0.06 h⁻¹. The “T ½, Maximum” value [1, 8] was 12.00 h, the “T ½, Minimum” value [1, 8] was 6.63 h and the “Tmax, Maximum” value [1, 8] was 12.00 h. For the same compound, the “Tmax, Minimum” value [1, 8] was 4.00 h, the AUC(0-t) ([1]; human, plasma, po, 100 mg, 35 healthy volunteers, single oral 100 mg Pristiq, plasma, read-out: AUC 0-t, Mean) was 6050 ng·h/mL and the AUC(0-t) ([1]; human, plasma, po, 100 mg, 35 healthy volunteers, single oral 100 mg Pristiq, plasma, read-out: AUC 0-t, Median) was 5780 ng·h/mL. For the same compound, the Cmax ([1]; human, plasma, po, 100 mg, 35 healthy volunteers, single oral 100 mg Pristiq, plasma, read-out: Cmax, Mean) was 290 ng/mL, the Cmax ([1]; human, plasma, po, 100 mg, 35 healthy volunteers, single oral 100 mg Pristiq, plasma, read-out: Cmax, Median) was 276 ng/mL and the k el ([1]; human, plasma, po, 100 mg, 35 healthy volunteers, single oral 100 mg Pristiq, plasma, read-out: Kel, Mean (converted)) was 2.22e-05 s⁻¹. The k el ([1]; human, plasma, po, 100 mg, 35 healthy volunteers, single oral 100 mg Pristiq, plasma, read-out: Kel, Median (converted)) was 1.94e-05 s⁻¹, the half-life ([1]; human, plasma, po, 100 mg, 35 healthy volunteers, single oral 100 mg Pristiq, plasma, read-out: T ½, Mean (converted)) was 9.43 h and the half-life ([1]; human, plasma, po, 100 mg, 35 healthy volunteers, single oral 100 mg Pristiq, plasma, read-out: T ½, Median (converted)) was 9.35 h. The Tmax ([1]; human, plasma, po, 100 mg, 35 healthy volunteers, single oral 100 mg Pristiq, plasma, read-out: Tmax, Mean) was 7.4 h, the Tmax ([1]; human, plasma, po, 100 mg, 35 healthy volunteers, single oral 100 mg Pristiq, plasma, read-out: Tmax, Median) was 7.5 h and the k el ([1]; human, plasma, po, 100 mg, individual participants, single oral 100 mg Pristiq, read-out: Kel (converted)) was 1.94e-05 s⁻¹. For the same compound, the half-life ([1]; human, plasma, po, 100 mg, individual participants, single oral 100 mg Pristiq, read-out: T1/2 (converted)) was 10.1 h, the Tmax ([1]; individual participants P1-P35, single oral 100 mg Pristiq) was 6.50 h and 8.67 h and 6.25 h and 4.00 h and 6.00 h and 8.33 h and 6.75 h and 7.00 h and 10.00 h and 5.00 h and 7.75 h and 12.00 h and 9.00 h and the “Alanine Aminotransferase Increased, events count” value [2, 9] was 3. The “Altered Erythrogram, events count” value [2, 9] was 1, the “Altered Leukogram, events count” value [2, 9] was 3 and the “Anxiety, events count” value [2, 9] was 1. The “Aspartate Transaminase Increased, events count” value [2, 9] was 5, the “Cephalea, events count” value [2, 9] was 3 and the “Diarrhea, events count” value [2, 9] was 1. The “General malaise, events count” value [2, 9] was 6, the “Incresead triglycerides, events count” value [2, 9] was 2 and the “Leukocyturia, events count” value [2, 9] was 2. The “Nausea, events count” value [2, 9] was 5, the “Syncope, events count” value [2, 9] was 1 and the “Total Cholesterol Increased, events count” value [2, 9] was 1. The “Vomiting, events count” value [2, 9] was 6, the “Alanine Aminotransferase Increased, intensity” value ([2]; human, in vivo) was “Mild” and the “Altered Erythrogram, intensity” value ([2]; human, in vivo) was “Mild”. For the same compound, the “Altered Leukogram, intensity” value ([2]; human, in vivo) was “Mild”, the “Anxiety, intensity” value ([2]; human, in vivo) was “Mild” and the “Aspartate Transaminase Increased, intensity” value ([2]; human, in vivo) was “Mild”. The “Cephalea, intensity” value ([2]; human, in vivo) was “Mild”, the “Diarrhea, intensity” value ([2]; human, in vivo) was “Mild” and the “General malaise, intensity” value ([2]; human, in vivo) was “Mild”. For the same compound, the “Incresead triglycerides, intensity” value ([2]; human, in vivo) was “Mild”, the “Leukocyturia, intensity” value ([2]; human, in vivo) was “Mild” and the “Nausea, intensity” value ([2]; human, in vivo) was “Mild”. The “Syncope, intensity” value ([2]; human, in vivo) was “Mild”, the “Total Cholesterol Increased, intensity” value ([2]; human, in vivo) was “Mild” and the “Vomiting, intensity” value ([2]; human, in vivo) was “Mild”. The volume of distribution ([3]; after intravenous administration) was 3.4 L/kg, the “excreted as the glucuronide metabolite” value [3] was ~ 19% and the “excreted as the oxidative metabolite (N,O-didesmethylvenlafaxine)” value [3] was < 5%. For the same compound, the excreted unchanged [3] was ~ 45%, the mean half-life [3] was “approximately 11 h” and the bioavailability ([3]; oral intake) was 80%. The “time to maximum plasma concentrations (Cmax)” value ([3]; oral intake) was 7.5 h, the plasma protein binding [4] was 30% and the “effect on muscarinic–cholinergic receptors” value [5] was “does not significantly affect”. The “effect on H1-histaminergic receptors” value [6] was “does not significantly affect”, the “effect on α1-adrenergic receptors” value (α1-adrenergic receptors) was “does not significantly affect” and the “inhibition of monoamine oxidase” value (monoamine oxidase) was “nor does it inhibit”. The “blood cholesterol and triglyceride levels” value [7] was “can increase”, the “participants with increased blood pressure” value ([7]; five participants of a clinical study) was 10% and the “systolic and diastolic blood pressure change” value ([7]; short-term desvenlafaxine treatment) was “small but statistically significant increases”. For the same compound, the “frequency of the adverse event nausea (very common)” value ([7]; stated as known frequency, no reference given) was ≥ 10%.
